Each block holds one molecule with its values, some of them ahead of it.
Columns and labels:
[1] = early Phase I; cited from earlier work
human xenograft models = conditions: dosed orally; cited from earlier work
CYP450 = conditions: cited from earlier work
[2] = in vivo; cited from earlier work
c-Met [3] = biological target: T1, c-Met (Homo sapiens, UniProt P08581); test: c-Met activation in HGF-treated A431 cells (proximity assay); format: cell-based; conditions: A431 epidermoid carcinoma cells, FIG. 3
Description: (§1) The slide was incubated for two hours at room temperature. • 4) After six washes with TBS-Tween, 80 μl of detection antibodies for the proximity assay diluted in TBS-Tween/2% BSA/1% FBS was added to the slides. The incubation was for 2 hours at room temperature. • a) As a non-limiting example, the detection antibodies can comprise the following: (i) an anti-c-Met monoclonal antibody that is directly conjugated to glucose oxidase (GO); and (ii) a monoclonal antibody recognizing phosphorylated c-Met that is directly conjugated to horseradish peroxidase (HRP). • b) Alternatively, the detection step can utilize a biotin-conjugate of the monoclonal antibody recognizing phosphorylated c-Met. In these instances, after six washes, an additional sequential step of incubation with streptavidin-HRP for 1 hour is included. • c) Alternatively, the detection step can utilize an oligonucleotide-mediated glucose oxidase (GO) conjugate of the anti-c-Met antibody. […]
(§2) The multiplexed protein microarray platform described herein utilizes the formation of a unique immuno-complex requiring the co-localization of two detector enzyme-conjugated-antibodies once target proteins are captured on the microarray surface. […] The detection and quantification of as few as ˜2-3×10^4 phosphorylation events is routinely achieved by this method, bringing its detection to a “single” cell level. […]

c-Met [4] = biological target: T1, c-Met; test: c-Met activation in HGF-treated HCC827 cells (proximity assay); format: cell-based; conditions: HCC827 lung cancer cells, FIG. 4
Source text: (§3) The multiplexed protein microarray platform described herein utilizes the formation of a unique immuno-complex requiring the co-localization of two detector enzyme-conjugated-antibodies once target proteins are captured on the microarray surface. The channeling events between two detector enzymes (glucose oxidase (GO) and horseradish peroxidase (HRP)) in proximity enables the profiling of a receptor tyrosine kinase (RTK) such as c-Met with extreme sensitivity. […] In particular, the multiplexed proximity assay is based on (1) a multiplexed protein microarray platform combined with (2) a triple-antibody-enzyme channeling signal amplification process. The unique and novel design is provided by the triple-antibody enzyme approach that confers ultra-high sensitivity while preserving specificity: • (1) The selected target is captured by target-specific antibodies printed in serial dilutions on a microarray surface. […] The detection and quantification of as few as ˜2-3×10^4 phosphorylation events is routinely achieved by this method, bringing its detection to a “single” cell level. In certain instances, this collaborative immunoassay configuration can be further applied to investigate protein interactions and activations.

HER2 [5] = test: HER2 activation in HGF-treated HCC827 cells (proximity assay); format: cell-based; conditions: HCC827 lung cancer cells, FIG. 4
Source text: as §3

HER2 [6] = test: HER2 activation in HGF-treated A431 cells (proximity assay); format: cell-based; conditions: A431 epidermoid carcinoma cells, FIG. 3
Description: as §1, §2

c-Met [7] = biological target: T1, c-Met; conditions: cited from earlier work

T1 sequence (P08581 25-1390): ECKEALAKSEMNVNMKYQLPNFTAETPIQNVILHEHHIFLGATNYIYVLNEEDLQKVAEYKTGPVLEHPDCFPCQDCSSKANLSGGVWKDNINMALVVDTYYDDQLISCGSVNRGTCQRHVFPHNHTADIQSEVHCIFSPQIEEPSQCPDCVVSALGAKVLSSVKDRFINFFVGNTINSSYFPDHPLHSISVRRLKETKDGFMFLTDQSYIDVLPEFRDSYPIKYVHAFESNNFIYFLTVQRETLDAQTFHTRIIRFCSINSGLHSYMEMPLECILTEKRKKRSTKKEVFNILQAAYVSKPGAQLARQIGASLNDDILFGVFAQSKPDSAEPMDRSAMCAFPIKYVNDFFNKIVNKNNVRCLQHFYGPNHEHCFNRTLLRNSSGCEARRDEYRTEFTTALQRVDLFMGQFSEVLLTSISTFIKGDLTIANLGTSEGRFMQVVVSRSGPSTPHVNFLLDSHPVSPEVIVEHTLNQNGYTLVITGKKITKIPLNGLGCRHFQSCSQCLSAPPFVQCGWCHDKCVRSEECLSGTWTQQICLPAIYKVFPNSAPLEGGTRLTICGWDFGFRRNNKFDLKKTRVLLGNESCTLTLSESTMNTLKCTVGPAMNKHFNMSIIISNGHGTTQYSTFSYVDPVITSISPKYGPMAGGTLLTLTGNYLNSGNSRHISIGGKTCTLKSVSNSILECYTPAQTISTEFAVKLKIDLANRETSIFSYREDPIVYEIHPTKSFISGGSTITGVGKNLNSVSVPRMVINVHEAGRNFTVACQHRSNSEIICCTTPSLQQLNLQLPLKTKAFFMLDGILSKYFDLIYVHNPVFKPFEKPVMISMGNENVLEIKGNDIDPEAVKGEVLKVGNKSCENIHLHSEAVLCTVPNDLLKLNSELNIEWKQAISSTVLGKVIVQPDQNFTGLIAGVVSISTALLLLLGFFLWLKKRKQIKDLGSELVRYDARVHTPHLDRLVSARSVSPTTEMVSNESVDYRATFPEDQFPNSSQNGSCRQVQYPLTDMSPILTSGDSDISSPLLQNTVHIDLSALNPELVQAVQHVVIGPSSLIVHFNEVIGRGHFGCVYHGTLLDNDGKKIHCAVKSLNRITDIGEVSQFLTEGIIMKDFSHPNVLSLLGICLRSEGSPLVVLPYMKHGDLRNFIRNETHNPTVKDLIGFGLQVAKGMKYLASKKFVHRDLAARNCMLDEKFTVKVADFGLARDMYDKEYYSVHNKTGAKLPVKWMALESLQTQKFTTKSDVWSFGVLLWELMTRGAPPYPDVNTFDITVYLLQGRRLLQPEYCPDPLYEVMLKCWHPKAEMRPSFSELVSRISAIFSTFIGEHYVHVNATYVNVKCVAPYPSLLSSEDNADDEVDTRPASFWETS

Molecule: CN(C[C@@H]1COCCO1)S(=O)(=O)Nc1ccc2ccc3ncc(-c4cnn(C)c4)cc3c(=O)c2c1 [MK-2461]
tolerability [1]: well tolerated

Molecule: Cn1cc(-c2ccc3nnc(Sc4ccc5ncccc5c4)n3n2)cn1 [SGX523]
antitumor activity (human xenograft models): potent antitumor activity | toxicity (human xenograft models): no overt toxicity

Molecule: COc1cc2c(Oc3ccc(NC(=O)C4(C(=O)Nc5ccc(F)cc5)CC4)cc3F)ccnc2cc1OCCCN1CCOCC1 [XL880]
CYP450 substrate / inhibitor / inducer (CYP450): substrate, but not an inhibitor or inducer | oral bioavailability [2]: good

c-Met phosphorylation (c-Met [3]): stimulated | increase of c-Met phosphorylation (c-Met [4]): about 4 fold
Molecule: HGF: c-Met ligand, hepatocyte growth factor, a multidomain glycoprotein
HER2 phosphorylation (HER2 [5]): not affected | HER2 phosphorylation (HER2 [6]): slightly decreased

Molecule: MetMAb: humanized, monovalent, antagonistic anti-c-Met antibody derived from the agonistic monoclonal antibody 5D5
binding to c-Met (c-Met [7]): high affinity

— patent US10473640B2, “Drug selection for gastric cancer therapy using antibody-based arrays” (Société des Produits Nestlé S.A., priority 2006, dated 2019)
